These results are taken from patent US10793601B2, “Therapeutic spalt-like transcription factor 4 (SALL4) peptide” (National University of Singapore, priority 2016, dated 2020).

Data set [1] addresses T1, RBBp4 (Homo sapiens, UniProt Q09028).
T1 construct: purchased SinoBiological
The data set is described as follows: Fluorescence polarization (FP) competition with FITC-labelled SALL4 WT peptide. Format: binding. The conditions noted are these: for IC50: displacement of FITC-SALL4 WT peptide from RBBp4. How it is done: (§1) FIGS. 3A-3E. Key residues involved in SALL4 (1-12)-RBBp4 binding. […] The difference in the binding free energy (ΔΔGbind) of the alanine mutants (ΔGmutant, Ala7 was mutated to glycine) and wild type (ΔGwild type) was calculated (ΔΔGbind=ΔGmutant−ΔGwild type). ΔΔGbind was tabulated (left) and plotted in a bar chart (right). […] Mutated residues are highlighted in red. The IC50 of each peptide, including WT, was determined by Fluorescence Polarization (FP). Different concentrations of each peptide were titrated into a mixture of 0.04 μM RBBp4 and 0.01 μM of C-labelled FITC-SALL4 WT peptide. Polarization was measured in mP. […] Pep-1 carrier was added to the peptide to facilitate cellular penetration of the peptides.
Peptides were titrated into a master mix of 0.045 μM RBBp4 and […] C-terminal FITC-labelled WT peptide (synthesized by Thermo Scientific). Reactions were incubated at room temperature before the plate was read with an Envision instrument (Perkin Elmer). IC50 values of peptides were determined using Prism (GraphPad).
In general terms: In fluorescence polarisation assays a small probe gives low polarisation when free and higher when bound to something large.

In data set [2] the test system is SNU398 cells. The data set is described as follows: Cell viability assay in SNU398 cells. It counts as cell-based. To be noted: for EC50: 72 h. How it is done:
as §1
FIGS. 5A-5B. Development of a potent therapeutic peptide FFW.
SNU398 was grown in RPMI supplemented with 10% fetal bovine serum (FBS) at 37° C. in a humidified atmosphere of 5% CO2. 3000 cells were seeded in each well of a 96 well plate with 100 μL of medium. Before peptide treatment, cells were washed twice with PBS and treated with different concentrations of peptide in OPTIMEM (LifeTech). Media was added after 4 hrs of incubation at 37° C., and cells incubated for another 68 hrs. Tetrazolium (CellTiter96 AQueous One Solution Cell Proliferation Assay, Promega) was added after 72 hrs incubation with the peptides, and the plate was read at a plate reader at 490 nm after 1 hr of incubation in the dark at 37° C.

Data set [3] has as its system SNU398 tumor xenografts. In words: SNU398 xenograft in NSG mice. Format: in vivo, NOD/SCID/gamma mice. To be noted: for effect on tumor growth: SNU398 xenograft, tumor volume against time; for tumor weight: mean, tumors resected on day 20, five i.p. injections. How it is done:
FIGS. 7A-7E. […] FIG. 7A: 7.2×10^5 SNU398 cells were inoculated subcutaneously into the right flank of NOD/SCID/gamma mice (NSG mice). Tumors were allowed to grow for one week before peptide treatments were administered every alternate day for a total of five injections. FIG. 7B: Tumor growth was documented by plotting tumor volume against time. […] FIG. 7C: Relative size of tumors resected on day 20. FIG. 7D: tumor weight was determined (n=5). […] FIG. 7E: Total RNA was isolated from the resected tumors and expression of PTEN was measured using real-time PCR.
FIGS. 9A-9E. […] FIG. 9A: PEN-FFW treated SNU398 tumor xenografts were compared to that of Sorafenib treated xenografts. FIG. 9B: PEN-FFW treated PLC8024 tumor xenografts were compared to that of Sorafenib treated xenografts. Mice body weight was measured to access toxicity of various peptides. FIG. 9C: Body weight of mice at day 17. FIG. 9D: Differences of body weight compared to day 0 (As indicated by the arrow in far left of FIG. 7A). FIG. 9E: Body weight of mice at day 19th in the experiment shown in FIG. 9A comparing effect of Sorafenib and PEN-FFW. Data represent mean±s.d. (n=5).
All mice were treated in accordance with Responsible Care and Use of Laboratory animals. In the SNU398 in vivo studies, 6-8-week-old female C.B-17 severe combined immunodeficient (SCID) mice (NSG) were inoculated s.c. into the flank with 7.2×10^5 cells in 2:1 PBS/Matrigel (BD Biosciences). The tumours were then allowed to develop to the size of 50-70 mm3 before intraperitoneal injections of the different peptides were given at two to three-day intervals for a total of 5 injections. Mice were randomly grouped in sets of six and treated with PEN (penetratin control), PEN-MUT (mutant control), PEN-WT (wild type control) and PEN-FFW (peptide 47). Tumor volumes were measured every 5 days and tumor weight were measured at the end point. For PEN control, 22.5 mg/kg were given; for PEN-MUT, PEN-WT and PEN-FFW, 35.6 mg/kg, 37 mg/kg and 36 mg/kg were given respectively to the mice according to their body weight Tumor measurements were taken twice weekly using Vernier calipers. Tumor volume was estimated using the following formula: V=0.5×width×width×length. When tumors approached ˜50 mm3, mice were randomized into groups of 5 animals each and received peptides treatment three times weekly by i.p. injection. All statistical analysis was done using a one-way ANOVA and Student's T-test.

Data set [4] has as its system SNU398. In words: RNA-seq transcriptome analysis of treated SNU398. Format: cell-based. How it is done:
SNU398 were treated PEN, PEN-MUT, PEN-WT & PEN-FFW for 8 hrs and paired-end RNA-seq was performed for the treated samples. RNA-seq reads of each sample were mapped to hg19 using the STAR aligner. Normalization between the samples was based on the proportionality of the numbers of the mapped reads. The expression fold change of a transcript was obtained using linear regression of the reads between the two samples cross all exons. Differential expression between two samples was selected by using the fold change cut off of 2. Hierarchical clustering was performed based on average linkage to generate the clustering tree as well as heat maps. For identification of enriched gene sets or pathways, Gene Set Enrichment Analysis (GSEA) was performed based on the normalized data and using the GSEA tool (broad.mit.edu/gsea/) with msigdb.v5.0.

Data set [5] has as its system PTEN. In words: PTEN transcript level by quantitative real-time PCR in SNU398 cells. Format: cell-based. To be noted: Q-PCR. (In general: Quantitative PCR measures a nucleic acid by following its amplification.)
The test system of data set [6] is PLC8024 tumor xenografts. In words: PLC8024 xenograft (Sorafenib-resistant HCC). It counts as in vivo, mice. As for the experimental part: FIGS. 9A-9E. Clinical significance of PEN-FFW compared to Sorafenib. FIG. 9A: PEN-FFW treated SNU398 tumor xenografts were compared to that of Sorafenib treated xenografts. FIG. 9B: PEN-FFW treated PLC8024 tumor xenografts were compared to that of Sorafenib treated xenografts. Mice body weight was measured to access toxicity of various peptides. FIG. 9C: Body weight of mice at day 17. FIG. 9D: Differences of body weight compared to day 0 (As indicated by the arrow in far left of FIG. 7A). FIG. 9E: Body weight of mice at day 19th in the experiment shown in FIG. 9A comparing effect of Sorafenib and PEN-FFW. Data represent mean±s.d. (n=5).
Clinical significance of PEN-FFW was studied in vivo by benchmarking against current therapy using Sorafenib. PEN-FFW treated SNU398 tumor xenografts were compared to that of Sorafenib treated xenografts (FIG. 9A). […] Potential therapeutic effect of PEN-FFW in HCC patients that are refractory to Sorafenib treatment was studied also studied in vivo. using a HCC cell line, PLC8024 which is SALL4 positive, CD133+ and is both chemo- and radio-resistant (Li et al., BMC Cancer 2016, 16, 15; Ma et al., Oncogene 2008, 27: 1749-1758), for the xenograft study.

Data set [7] in a line: Plasma stability by LC-MS/MS.
Experimental: PEN-FFW was incubated with human plasma (pH7.4) at 37° C. over a 24 hour period (5 timepoints). Incubations were performed at a concentration of 1 μM (final DMSO concentration 2.5%). Reactions were terminated at 0, 5, 10, 15, 30 min, or 0, 1, 2, 4 and 24 hour, by addition of 2 volumes of methanol containing 1% Formic acid. The samples were centrifuged (2500 rpm, 45 min, 4° C.) and the supernatants diluted with 2 volumes of 0.2% Formic acid (aq) (containing Metoprolol (internal standard)). […] The percentage of parent peptide remaining at each time point relative to the 0 min sample was calculated from LC-MS/MS peak area ratios (compound peak area/internal standard peak area).

Several values for one entry are separate records, joined by “and”; a condition that tells them apart may be missing. Equal entries are not always repeated. Ends that are not written are not given here. Bounds are passed on as bounds.

T1 sequence (Q09028 whole entry): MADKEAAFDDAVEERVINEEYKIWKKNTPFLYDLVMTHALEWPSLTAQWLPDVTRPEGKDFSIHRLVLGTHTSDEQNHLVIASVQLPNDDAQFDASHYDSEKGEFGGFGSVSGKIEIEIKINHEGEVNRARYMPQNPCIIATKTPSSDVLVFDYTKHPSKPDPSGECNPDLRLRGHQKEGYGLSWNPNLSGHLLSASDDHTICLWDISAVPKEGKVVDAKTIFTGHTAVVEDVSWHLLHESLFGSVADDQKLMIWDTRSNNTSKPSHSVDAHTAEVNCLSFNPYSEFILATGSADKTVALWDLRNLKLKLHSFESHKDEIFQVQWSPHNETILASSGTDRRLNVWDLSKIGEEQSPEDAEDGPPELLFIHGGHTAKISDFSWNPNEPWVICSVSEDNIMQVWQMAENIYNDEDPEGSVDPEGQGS

Usually IC50 stands for the concentration that gives 50% inhibition. A higher IC50 goes with a need for much substance. Compound Ac-RRKQAKAQHI-NH2 [Peptide 13] came in with an IC50 in data set [1] of 270 ± 30 nM.

Compound Ac-RRKQAKPQWI-NH2 [Peptide 41] had an IC50 in data set [1] of 120 nM. Further, the “enhancement in binding affinity over that of peptide 6” value in data set [1] (ratio of FP IC50 values) was found to be 3 fold.

Broadly, the EC50 is the concentration at which the effect is half-maximal. A lower EC50 goes with greater potency. Regarding RQIKIWFQNRRMKWKKMSARAQAKPQHI [PEN-MUT], the EC50 in data set [2] was greater than 100 µM. In data set [3], the “effect on tumor growth” value is recorded as “neither peptide was able to inhibit tumor growth” and the tumor weight was found to be 1273.46 mg.

RQIKIWFQNRRMKWKKMSRRKQAKPQHI [PEN-WT]: a half-maximal response in data set [2] (EC50) required 30 µM. Moreover, in data set [3], the “effect on tumor growth” value was “markedly impaired tumor growth”; the tumor weight was 563.46 mg and 564 mg.

On to Ac-RRKQRKPQHI-NH2 [Peptide 26], for which the IC50 in data set [1] worked out at 460 ± 100 nM.

In data set [1], Ac-MSRRKQAKPQ-NH2 [Peptide 3] yielded an IC50 of 800 nM.

In data set [1], Ac-SRRKQAKPQHI-NH2 [Peptide 5] returned an IC50 of 600 nM.

In turn, Ac-RRKFAKFQWI-NH2 [Peptide 46] came in with a half-inhibitory concentration (IC50) in data set [1] of 23 nM. Also, in data set [1] (ratio of FP IC50 values), the “increase in affinity as compared with the original 12-residue WT peptide” value is reported as greater than 56 fold. In data set [4] (gene ADORA2A-AS1, SNU398, 8 hrs), the “log2 fd versus Contr (PEN + Mut), ADORA2A-AS1” value is recorded as 2.17. Further, in data set [4] (gene AVPR2, SNU398, 8 hrs), the “log2 fd versus Contr (PEN + Mut), AVPR2” value is 1.53. Moreover, in data set [4] (gene CSAD, SNU398, 8 hrs), the “log2 fd versus Contr (PEN + Mut), CSAD” value worked out at 1.09. Further, the “log2 fd versus Contr (PEN + Mut), DNASE1L2” value in data set [4] (gene DNASE1L2, SNU398, 8 hrs) worked out at 1.11. In addition, the “log2 fd versus Contr (PEN + Mut), LOC619207” value in data set [4] (gene LOC619207, SNU398, 8 hrs) was 1.33. Besides, in data set [4] (gene NEIL1, SNU398, 8 hrs), the “log2 fd versus Contr (PEN + Mut), NEIL1” value is 1.11. Also, the “log2 fd versus Contr (PEN + Mut), PRKXP1” value in data set [4] (gene PRKXP1, SNU398, 8 hrs) is 2.12. Further, in data set [4] (gene SSPO, SNU398, 8 hrs), the “log2 fd versus Contr (PEN + Mut), SSPO” value was 2.40.

Turning to Ac-RRKQAKPLHI-NH2 [Peptide 38], the IC50 in data set [1] amounted to 460 ± 100 nM.

Take RQIKIWFQNRRMKWKK [PEN]: in data set [3], the “effect on tumor growth” value is reported as “neither peptide was able to inhibit tumor growth” and the tumor weight is 1550.78 mg.

As to Ac-RRRQAKPQHI-NH2 [Peptide 6], in data set [1], the half-maximal inhibitory concentration (IC50) came to 360 nM. This lies in the sub-micromolar range.

Turning to Ac-RRKQAKPAHI-NH2 [Peptide 14], the concentration for half-maximal inhibition (IC50) in data set [1] came out at 120 ± 10 nM.

The compound Ac-RRKQAKLQHI-NH2 [Peptide 33] gave a half-inhibitory concentration (IC50) in data set [1] of 4400 ± 1100 nM.

For Ac-RKQAKPQHI-NH2 [Peptide 7], the IC50 in data set [1] was greater than 20000 nM.

Regarding Ac-RRKFAKPQHI-NH2 [Peptide 24], the “enhancement in binding affinity over that of peptide 6” value in data set [1] (ratio of FP IC50 values) is 7 fold.

Turning to Ac-RRAQAKPQHI-NH2 [Peptide 10], the IC50 in data set [1] is greater than 20000 nM.

For Ac-RRKQAKFQHI-NH2 [Peptide 34], the 50% inhibitory concentration (IC50) in data set [1] amounted to 170 nM.

In data set [1], Ac-ARKQAKPQHI-NH2 [Peptide 8] had a half-inhibitory concentration (IC50) greater than 20000 nM.

With Ac-RRKQAKPQHA-NH2 [Peptide 16], the IC50 in data set [1] came out at 460 ± 200 nM.

Take Ac-KRKQAKPQHI-NH2 [Peptide 17]: in data set [1], the 50% inhibitory concentration (IC50) was 3800 ± 500 nM.

In turn, Ac-RRKLAKPQHI-NH2 [Peptide 23] showed an IC50 in data set [1] of 270 ± 100 nM.

The compound Ac-RAKQAKPQHI-NH2 [Peptide 9] gave a half-inhibitory concentration (IC50) in data set [1] greater than 20000 nM.

As to “Ac-MSARAQAKPQHI-NH2 (N-terminus and C-terminus assumed) [MUT]”, the “effect on cell number” value in data set [2] (SNU398, Pep-1 carrier added) is listed as “does not”. Further, the “increase in PTEN expression compared to untreated cells” value in data set [5] is “no significant change”.

Turning to `CNC(=O)c1cc(Oc2ccc(NC(=O)Nc3ccc(Cl)c(C(F)(F)F)c3)cc2)ccn1` [Sorafenib, reference compound], in data set [6], the “tumor growth as compared to the control group” value is recorded as 1.5 fold.

The fraction remaining is what is left of the initial amount, in per cent. Low readings indicate a greater loss, high ones greater stability. With `CC1CC(OC(=O)C(O)c2ccccc2)CC(C)(C)N1C` (stereo not drawn) [Eucatropine], the “peptide/compound remaining in the plasma” value in data set [7] (human plasma, 37° C., 1 μM, after 30 min) came out at 40%. The compound also showed a fraction remaining at 0.5 h, 1 μM in data set [7] (human, pH 7.4) of 40%.
